The values that follow come from patent US9744160B2, “Pharmaceutical compositions comprising sulbactam and beta-lactamase inhibitor” (WOCKHARDT LIMITED, priority 2011, dated 2017).

The assay has as its system A. baumanii 13305. Briefly: MIC by agar dilution (CLSI). The format is cell-based. A general note: In agar dilution, organisms are placed on agar that contains the substance at set levels.

Experimental: In a typical study, overnight grown bacterial cultures were diluted appropriately and inoculated on the agar media containing doubling dilutions of composition or pharmaceutically active ingredients disclosed herein. Observation for growth or no growth was performed after 16-20 hours of incubation at 35±2° C. in ambient air. The overall procedure was performed as per Clinical and Laboratory Standards Institute (CLSI) recommendations (Clinical and Laboratory Standards Institute (CLSI), performance Standards for Antimicrobial Susceptibility Testing, 20th Informational Supplement, M 100-S20, Volume 30, No. 1, 2010).

As to `CO/N=C(\C(=O)N[C@@H]1C(=O)N2C(C(=O)[O-])=C(C[N+]3(C)CCCC3)CS[C@H]12)c1csc(N)n1` [Cefepime], the “MIC of cefepime in presence of Sulbactam (4 to 8 mcg/ml)” value was 4 µg/mL.
